In patent US9873702B2, “Heterocyclic compounds as biogenic amine transport modulators” (Southern Research Institute, priority 2014, dated 2018):

Columns and labels:
[1] = biological target: dopamine transporter (DAT) (Rattus norvegicus, UniProt P23977); assay: Dopamine reuptake ([^3H]dopamine uptake) inhibition in rat brain synaptosomes; details: for IC50: DA Uptake EC50 (nM ± SD), rat caudate synaptosomes, 5 nM [^3H]dopamine, 15 min, 25° C., three experiments pooled; for Emax: read-out: DA Uptake Emax (% I ± SD)
dopamine transporter (DAT), sequence (P23977 whole entry): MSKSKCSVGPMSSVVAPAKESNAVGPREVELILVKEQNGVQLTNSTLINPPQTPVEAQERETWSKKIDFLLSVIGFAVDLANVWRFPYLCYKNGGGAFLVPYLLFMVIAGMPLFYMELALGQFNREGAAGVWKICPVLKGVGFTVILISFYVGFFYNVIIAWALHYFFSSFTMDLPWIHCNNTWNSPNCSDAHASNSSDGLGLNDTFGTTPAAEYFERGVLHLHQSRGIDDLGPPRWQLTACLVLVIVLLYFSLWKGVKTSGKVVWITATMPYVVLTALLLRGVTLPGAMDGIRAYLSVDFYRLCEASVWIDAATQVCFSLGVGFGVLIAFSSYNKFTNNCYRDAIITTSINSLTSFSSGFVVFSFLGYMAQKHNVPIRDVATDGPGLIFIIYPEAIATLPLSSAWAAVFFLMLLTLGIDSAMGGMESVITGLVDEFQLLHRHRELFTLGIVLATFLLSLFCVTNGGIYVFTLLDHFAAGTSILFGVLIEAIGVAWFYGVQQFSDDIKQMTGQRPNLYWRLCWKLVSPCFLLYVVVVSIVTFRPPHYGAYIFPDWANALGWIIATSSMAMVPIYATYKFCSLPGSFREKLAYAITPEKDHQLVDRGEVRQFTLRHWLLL

| SMILES | IC50 [1] | Emax [1] | melting point |
| --- | --- | --- | --- |
| c1ccc(C(CNc2nc(-c3cccc4[nH]ccc34)nc3ccccc23)c2ccccc2)cc1 [compound 32, N-(2,2-Diphenylethyl)-2-(1H-Indol-4-yl)Quinazolin-4-Amine] | 189 ± 37 nM | 68 ± 3% | 100 °C |
| c1ccc(CNc2ncc(-c3nc(NCC(c4ccccc4)c4ccccc4)c4ccccc4n3)cn2)cc1 [compound 46, 2-(2-(Benzylamino)Pyrimidin-5-yl)-N-(2,2-Diphenylethyl)Quinazolin-4-Amine] | 544 ± 248 nM | 60 ± 6% | 184 °C |
| COc1cc2nc(-c3ccsc3)nc(NCC(c3ccccc3)c3ccccc3)c2cc1OC [compound 27, N-(2,2-Diphenylethyl)-6,7-Dimethoxy-2-(Thiophen-3-yl)Quinazolin-4-Amine] | 580 nM | 100% | 92 °C |
| COc1cc2nc(-c3ccc4[nH]ccc4c3)nc(NCC(c3ccccc3)c3ccccc3)c2cc1OC [compound 24, N-(2,2-Diphenylethyl)-2-(1H-indol-5-yl)-6,7-Dimethoxyquinazolin-4-Amine] | 46 nM | 100% | 117 °C |
| c1ccc(C(CNc2nc(-c3cnc4[nH]ccc4c3)nc3ccccc23)c2ccccc2)cc1 [compound 123, N-(2,2-Diphenylethyl)-2-(1H-Pyrrolo[2,3-B]Pyridin-5-yl)Quinazolin-4-Amine] | 31 ± 5 nM | 69 ± 2% | 193 °C |
| COc1ccc2nc(-c3ccc4[nH]ccc4c3)nc(NCC(c3ccccc3)c3ccccc3)c2c1 [compound 61, N-(2,2-Diphenylethyl)-2-(1H-Indol-5-yl)-6-Methoxyquinazolin-4-Amine] | 115 ± 20 nM | 80 ± 3% | 112 °C |
| Cc1cc2nccn2cc1-c1nc(NCC(Oc2ccccc2)c2ccccc2)c2ccccc2n1 (stereo not drawn) [compound 177, 2-(7-Methylimidazo[1,2-A]Pyridin-6-yl)-N-(2-Phenoxy-2-Phenylethyl)Quinazolin-4-Amine] | 2.3 ± 0.5 nM | 75 ± 3% | 243 to 246 °C |
| c1ccc(C(CNc2nc(-c3ccc4scnc4c3)nc3ccccc23)c2ccccc2)cc1 [compound 145, 2-(Benzo[D]Thiazol-5-yl)-N-(2,2-Diphenylethyl)Quinazolin-4-amine] | 533 ± 89 nM | 67 ± 2% | 224 to 226 °C |
| c1ccc(C(CNc2nc(-c3cccc4cccnc34)nc3ccccc23)c2ccccc2)cc1 [compound 141, N-(2,2-Diphenylethyl)-2-(Quinolin-8-yl)Quinazolin-4-Amine] | 45 ± 7 nM | 98 ± 3% | 102 to 104 °C |
| CC(C)(C)OC(=O)n1cnc2cc(-c3nc(NCC(c4ccccc4)c4ccccc4)c4ccccc4n3)ccc21 [compound 62, Tert-Butyl 5-(4-((2,2-Diphenylethyl)Amino)Quinazolin-2-yl)-1H-Benzo [D]Imidazole-1-Carboxylate] | 4210 nM | < 100% | 183 °C |
| c1ccc(C(CNc2nc(-c3cnc4nccn4c3)nc3ccccc23)c2ncccn2)cc1 (stereo not drawn) [compound 109, 2-(Imidazo[1,2-A]Pyrimidin-6-yl)-N-(2-Phenyl-2-(Pyrimidin-2-yl)Ethyl)Quinazolin-4-Amine] | 377 ± 78 nM | 57 ± 2% | 180 °C |
| COc1cc2nc(-c3cnc(N(C)C)nc3)nc(NCC(c3ccccc3)c3ccccc3)c2cc1OC [compound 23, 2-(2-(Dimethylamino)Pyrimidin-5-yl)-N-(2,2-Diphenylethyl)-6,7-Dimethoxyquinazolin-4-Amine] | 720 nM | 100% | 92 °C |
| c1ccc(C(CCNc2nc(-c3cccs3)nc3ccccc23)c2ccccc2)cc1 [compound 7, N-(3,3-Diphenylpropyl)-2-(thiophen-2-yl)quinazolin-4-amine] | 910 nM | 100% | 152 to 155 °C |
| CS(=O)(=O)Nc1ncc(-c2nc(NCC(c3ccccc3)c3ccccc3)c3ccccc3n2)cn1 [compound 139, N-(5-(4-((2,2-Diphenylethyl)Amino)Quinazolin-2-yl)Pyrimidin-2-yl)Methanesulfonamide] | 205 ± 32 nM | 67 ± 2% | 214 °C |
| Nc1ncc(-c2nc(NCC(c3ccccc3)C3CCCCC3)c3ccccc3n2)cn1 (stereo not drawn) [compound 101, 2-(2-Aminopyrimidin-5-yl)-N-(2-Cyclohexyl-2-Phenylethyl)Quinazolin-4-Amine] | 79 ± 19 nM | 75 ± 3% | 105 °C |
| c1ccc(CC(CNc2nc(-c3ccc4nccn4c3)nc3ccccc23)c2ccccc2)cc1 (stereo not drawn) [compound 136, N-(2,3-Diphenylpropyl)-2-(imidazo[1,2-a]pyridin-6-yl)quinazolin-4-amine] | 34 ± 4 nM | 78 ± 2% | 208 to 210 °C |
| Cn1cnc2ccc(-c3nc(NCC(c4ccccc4)c4ccccc4)c4ccccc4n3)cc21 [compound 64, N-(2,2-Diphenylethyl)-2-(1-Methyl-1H-Benzo [D]Imidazol-6-yl)Quinazolin-4-Amine] | 19 ± 3 nM | 75 ± 2% | 248 °C |

| SMILES | IC50 [1] | Emax [1] | melting point |
| --- | --- | --- | --- |
| c1ccc(C(CCNc2nc(-c3cncnc3)nc3ccccc23)c2ccccc2)cc1 [compound 22, N-(3,3-Diphenylpropyl)-2-(Pyrimidin-5-yl)Quinazolin-4-Amine] | 750 nM | 100% | 154 °C |
| c1ccc(C(CNc2nc(N3Cc4ccccc4C3)nc3ccccc23)c2ccccc2)cc1 [compound 189, N-(2,2-Diphenylethyl)-2-(Isoindolin-2-yl)Quinazolin-4-Amine] | 24 ± 7 nM | 83 ± 4% | 293 to 295 °C |
| Cc1cc2nccn2cc1-c1nc(NCCc2ccncc2)c2ccccc2n1 [compound 181, 2-(7-Methylimidazo[1,2-A]Pyridin-6-yl)-N-(2-(Pyridin-4-yl)Ethyl)Quinazolin-4-Amine] | 85 ± 5 nM | 72 ± 1% | 234 to 236 °C |
| CS(=O)(=O)Nc1ccc(-c2nc(NCC(c3ccccc3)c3ccccc3)c3ccccc3n2)cn1 [compound 138, N-(5-(4-((2,2-Diphenylethyl)Amino)Quinazolin-2-yl)Pyridin-2-yl)Methanesulfonamide] | 26 ± 3 nM | 63 ± 1% | 210 °C |
| c1ccc(C(CNc2nc(-c3ccc4cn[nH]c4c3)nc3ccccc23)c2ccccc2)cc1 [compound 34, N-(2,2-Diphenylethyl)-2-(1H-Indazol-6-yl)Quinazolin-4-Amine] | 123 ± 20 nM | 68 ± 2% | 223 °C |
| CS(=O)(=O)n1ccc2cc(-c3nc(NCC(c4ccccc4)c4ccccc4)c4ccccc4n3)ccc21 [compound 154, N-(2,2-Diphenylethyl)-2-(1-(Methylsulfonyl)-1H-Indol-5-yl)Quinazolin-4-Amine] | 56 ± 13 nM | 73 ± 3% | 144 to 146 °C |
| c1ccc(CC(CNc2nc(-c3cnc4nccn4c3)nc3ccccc23)c2ccccc2)cc1 (stereo not drawn) [compound 142, N-(2,3-Diphenylpropyl)-2-(Imidazo[1,2-A]Pyrimidin-6-yl)Quinazolin-4-Amine] | 15 ± 3 nM | 73 ± 2% | 189 to 191 °C |
| c1ccc(C(CNc2nc(-c3ccsc3)nc3ccccc23)c2ccccc2)cc1 [compound 10, N-(2,2-Diphenylethyl)-2-(thiophen-3-yl)quinazolin-4-amine] | 250 nM | < 100% | 152 to 155 °C |
| c1ccc(C2CN(c3nc(-c4cnc5nccn5c4)nc4ccccc34)Cc3ccccc32)cc1 (stereo not drawn) [compound 143, 2-(Imidazo[1,2-A]Pyrimidin-6-yl)-4-(4-Phenyl-3,4-Dihydroisoquinolin-2(1H)-yl)Quinazoline] | 502 ± 84 nM | 73 ± 3% | 104 to 106 °C |
| c1ccc2c(NCC(c3ccncc3)c3ccncc3)nc(-c3ccc4nccn4c3)nc2c1 [compound 158, N-(2,2-Di(Pyridin-4-yl)Ethyl)-2-(Imidazo[1,2-A]Pyridin-6-yl)Quinazolin-4-Amine] | 66 ± 10 nM | 68 ± 2% | 192 to 196 °C |
| CN(C)Cc1c[nH]c2ccc(-c3nc(NCC(c4ccccc4)c4ccccc4)c4ccccc4n3)cc12 [compound 111, 2-(3-((Dimethylamino)methyl)-1H-Indol-5-yl)-N-(2,2-Diphenylethyl)Quinazolin-4-Amine] | 381 ± 42 nM | 101 ± 2% | 182 °C |
| c1ccc(C(CNc2nc(-c3ccc4[nH]ncc4c3)nc3ccccc23)c2ccccc2)cc1 [compound 40, N-(2,2-Diphenylethyl)-2-(1H-Indazol-5-yl)Quinazolin-4-Amine] | 124 ± 37 nM | 74 ± 4% | 191 °C |
| Cn1ccc2cc(-c3nc(NCC(c4ccccc4)c4ccccc4)c4ccccc4n3)ccc21 [compound 77, N-(2,2-Diphenylethyl)-2-(1-Methyl-1H-Indol-5-yl)Quinazolin-4-Amine] | 28 ± 5 nM | 69 ± 2% | 222 °C |
| O=C(Nc1nc(-c2ccc3nccn3c2)nc2ccccc12)C(c1ccccc1)c1ccccc1 [compound 144, N-(2-(Imidazo[1,2-A]Pyridin-6-yl)Quinazolin-4-yl)-2,2-Diphenylacetamide] | 160 ± 28 nM | 61 ± 2% | 218 to 220 °C |
| c1ccc(C(CNc2nc(-c3ccc4ncsc4c3)nc3ccccc23)c2ccccc2)cc1 [compound 70, 2-(Benzo [D]Thiazol-6-yl)-N-(2,2-Diphenylethyl)Quinazolin-4-Amine] | 45 ± 15 nM | 67 ± 4% | 198 °C |
| Nc1ccc(-c2nc(NCC(c3ccccc3)c3ccccc3)c3ccccc3n2)cn1 [compound 88, 2-(6-Aminopyridin-3-yl)-N-(2,2-Diphenylethyl)Quinazolin-4-Amine] | 41 ± 13 nM | 86 ± 5% | 86 °C |
